Laboratory results as given in ChEMBL document CHEMBL1165986, “Xestosaprols from the Indonesian marine sponge Xestospongia sp” (J Nat Prod, 2010).

Target: Beta-secretase 1 (Homo sapiens, UniProt P56817)
Assay: Inhibition of BACE1 mediated cleavage of amyloid precursor protein by chemiluminescence assay

Sequence of Beta-secretase 1 (P56817 whole entry): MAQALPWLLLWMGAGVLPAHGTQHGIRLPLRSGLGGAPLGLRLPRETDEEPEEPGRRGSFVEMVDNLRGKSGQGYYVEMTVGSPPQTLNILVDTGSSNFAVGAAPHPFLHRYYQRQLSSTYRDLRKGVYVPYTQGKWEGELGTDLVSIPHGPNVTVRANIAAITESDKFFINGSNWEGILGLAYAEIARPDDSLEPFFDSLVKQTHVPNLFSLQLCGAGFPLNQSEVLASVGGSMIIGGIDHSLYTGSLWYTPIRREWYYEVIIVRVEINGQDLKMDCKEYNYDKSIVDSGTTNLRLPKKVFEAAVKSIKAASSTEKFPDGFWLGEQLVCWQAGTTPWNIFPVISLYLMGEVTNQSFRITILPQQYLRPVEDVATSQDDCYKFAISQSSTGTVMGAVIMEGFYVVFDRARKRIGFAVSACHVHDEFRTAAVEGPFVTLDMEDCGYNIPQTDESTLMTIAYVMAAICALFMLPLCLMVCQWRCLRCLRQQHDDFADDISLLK

Row | SMILES | IC50 [µM] | inhibition
1 | C[C@@]12CC[C@@H](O)[C@@H]3COC(=C31)C(=O)c1cc3ccccc3cc12 [XESTOSAPROL I] | 163 | Dose-dependent effect
2 | COc1cccc2cc3c(cc12)[C@]1(C)CC[C@H](O)[C@@H]2COC(=C21)C3=O [XESTOSAPROL J] | 90 | Dose-dependent effect
3 | C[C@@]12CC[C@H](O)[C@@H]3COC(=C31)C(=O)c1cc3cccc(O)c3cc12 [XESTOSAPROL K] | 93 | Dose-dependent effect
4 | C[C@@]12CC[C@H](O)[C@@H]3COC(=C31)C(=O)c1cc3ccccc3cc12 [XESTOSAPROL L] | 98 | Dose-dependent effect
5 | C[C@@]12CCCc3coc(c31)C(=O)c1cc3ccccc3cc12 [XESTOSAPROL M] | 104 | Dose-dependent effect

Results, then the compound that gave them:

Row | IC50 [µM] | inhibition | SMILES
6 | 135 | Dose-dependent effect | C[C@@]12CC[C@H](O)[C@@H]3COC(=C31)C(=O)c1cc3c(OCCO)cccc3cc12 [XESTOSAPROL F]
7 | 155 | Dose-dependent effect | C[C@@]12CC[C@H](O)[C@@H]3COC(=C31)C(=O)c1cc3c(O)cccc3cc12 [XESTOSAPROL G]
8 | 82 | Dose-dependent effect | C[C@@]12CC[C@@H](O)[C@@H]3COC(=C31)C(=O)c1cc3c(OCCO)cccc3cc12 [XESTOSAPROL H]
